Experimental data taken from patent US20040029254A1, “Method of screening anti-bacterial agents for effectiveness in treating persistant intracellular infections” (University of Washington, priority 2002, published 2004).
In brackets after ≈: the same amount, converted by molar mass. Several values for one entry are separate records, joined by “and”; a condition that tells them apart may be missing. Identical values can stand only once. Like-named read-outs stand apart in the source and are kept apart here.

How the values were obtained:
Format in all cases: cell-based
[1] = test system: C. trachomatis serovar D strain; assay: Comparison of MIC, MCC, MCC3 and MCC3/MIC ratio in McCoy cells; settings: for MIC: Chlamydia trachomatis
[2] = test system: C. pneumoniae TW-183, CWL-029; assay: Anti-bacterial susceptibilities of reference strains; settings: for MIC: Chlamydia pneumoniae, HEp-2 cells, read-out: MIC (microtiter)
[3] = test system: Chlamydia trachomatis clinical isolates; assay: Anti-bacterial susceptibilities of clinical isolates; settings: for MIC: Chlamydia trachomatis, read-out: MIC (microtiter)
[4] = test system: clinical isolates of C. trachomatis; assay: microbe, parasite or virus in culture
[5] = test system: C. trachomatis MoPn (mouse pneumonitis strain); assay: Anti-bacterial susceptibilities of reference strains; settings: Chlamydia trachomatis; McCoy cells; read-out: MIC (microtiter)
[6] = test system: C. trachomatis L2 (LGV serovar); assay: as above; settings: Chlamydia trachomatis; McCoy cells; read-out: MIC (microtiter)
[7] = test system: C. trachomatis serovar D (strain UW-3); assay: Effect of inoculum size on doxycycline MIC, MCC and MCC3
[8] = test system: C. trachomatis B,D,E,F,G,H,I,Ia,J,K (human genital serovars); assay: Anti-bacterial susceptibilities of reference strains; settings: Chlamydia trachomatis; McCoy cells; read-out: MIC (microtiter)
[9] = test system: C. psittaci 6BC, GPIC; assay: microbe, parasite or virus in culture; settings: Chlamydia psittaci, read-out: MIC (microtiter)
[10] = test system: Chlamydia trachomatis serovar D; assay: microbe, parasite or virus in culture
[11] = CDC strains sensitive controls (n = 2), McCoy cells
[12] = CDC strains treatment failures (n = 2), McCoy cells
[13] = Recurrent same serovar isolates (n = 6), McCoy cells
[14] = Single isolates (n = 30), McCoy cells
[15] = Treatment failure isolates (n = 6), McCoy cells
[16] = CDC strains treatment failures (n = 2), multi-drug resistant at CDC, McCoy cells
[17] = inoculum 0.3125 × 10^3 IFU/well

CC[C@H]1OC(=O)[C@H](C)[C@@H](O[C@H]2C[C@@](C)(OC)[C@@H](O)[C@H](C)O2)[C@H](C)[C@@H](O[C@@H]2O[C@H](C)C[C@H](N(C)C)[C@H]2O)[C@](C)(O)C[C@@H](C)CN(C)[C@H](C)[C@@H](O)[C@]1(C)O [Azithromycin, azithromycin]
MCC ([1]; McCoy cells): 8 µg/mL
MCC3 ([1]; McCoy cells): 64 µg/mL
MCC1 (shell vial) [2]: 4 to 8 µg/mL
MCC3 (shell vial) [2]: 64 µg/mL
MCC (microtiter) [2]: 0.25 µg/mL
MCC3 (shell vial) [3, 11]: 64 µg/mL
MCC (microtiter) [3, 11]: 0.25 to 0.5 µg/mL
MCC (shell vial) [3, 11]: >8 µg/mL
MCC3 (shell vial) [3, 12]: 64 µg/mL
MCC (microtiter) [3, 12]: 0.25 to 0.5 µg/mL
MCC (shell vial) [3, 12]: >8 µg/mL
MCC3 (shell vial) [3, 13]: 64 µg/mL
MCC (microtiter) [3, 13]: 0.25 to 0.5 µg/mL
MCC (shell vial) [3, 13]: >8 µg/mL
MCC3 (shell vial) [3, 14]: 64 µg/mL
MCC (microtiter) [3, 14]: 0.25 to 0.5 µg/mL
MCC (shell vial) [3, 14]: >8 µg/mL
MCC3 (shell vial) [3, 15]: 64 µg/mL
MCC (microtiter) [3, 15]: 0.25 to 0.5 µg/mL
MCC (shell vial) [3, 15]: >8 µg/mL

C[C@H]1c2cccc(O)c2C(=O)C2=C(O)[C@]3(O)C(=O)C(C(N)=O)=C(O)[C@@H](N(C)C)[C@@H]3[C@@H](O)[C@@H]21 [Doxycycline, doxycycline]
MCC3/MIC [4]: 1000
MIC ([4]; Chlamydia trachomatis): 64 to 125 ng/mL (≈ 144 to 281 nM)
MCC3/MIC [1]: 1000
MIC ([1]; McCoy cells, read-out: MIC): 64 ng/mL
MCC ([1]; McCoy cells): 8 µg/mL
MCC3 ([1]; McCoy cells): 64 µg/mL
MCC1 (shell vial) [2]: 4 to 8 µg/mL
MCC3 (shell vial) [2]: 32 to 64 µg/mL
MCC (microtiter) [2]: 0.125 µg/mL
MIC [2]: 64 ng/mL (≈ 144 nM)
MCC3 (shell vial) [3, 11]: 16 to 64 µg/mL
MCC (microtiter) [3, 11]: 0.125 to 0.25 µg/mL
MCC (shell vial) [3, 11]: >8 µg/mL
MIC (microtiter) [3, 11]: 64 to 125 ng/mL
MIC (microtiter) [3, 16]: 64 to 125 ng/mL
MCC3 (shell vial) [3, 12]: 16 to 64 µg/mL
MCC (microtiter) [3, 12]: 0.125 to 0.25 µg/mL
MCC (shell vial) [3, 12]: >8 µg/mL
MIC [3]: 64 to 125 ng/mL (≈ 144 to 281 nM)
MCC3 (shell vial) [3, 13]: 16 to 64 µg/mL
MCC (microtiter) [3, 13]: 0.125 to 0.25 µg/mL
MCC (shell vial) [3, 13]: >8 µg/mL
MCC3 (shell vial) [3, 14]: 16 to 64 µg/mL
MCC (microtiter) [3, 14]: 0.125 to 0.25 µg/mL
MCC (shell vial) [3, 14]: >8 µg/mL
MIC (microtiter) [3, 14]: 64 to 125 ng/mL
MCC3 (shell vial) [3, 15]: 16 to 64 µg/mL
MCC (microtiter) [3, 15]: 0.125 to 0.25 µg/mL
MCC (shell vial) [3, 15]: >8 µg/mL
MIC (microtiter) [3, 15]: 64 to 125 ng/mL
MIC [5]: 64 ng/mL (≈ 144 nM)
MIC [6]: 64 ng/mL (≈ 144 nM)
MIC ([7]; Chlamydia trachomatis, inoculum 80 × 10^3 IFU/well, read-out: MIC): 64 ng/mL (≈ 144 nM)
MCC [7, 17]: 0.064 µg/mL
MCC3 [7, 17]: 0.064 µg/mL
MIC [7, 17]: 64 ng/mL (≈ 144 nM)
MCC ([7]; inoculum 0.625 × 10^3 IFU/well): 0.064 µg/mL
MCC3 ([7]; inoculum 0.625 × 10^3 IFU/well): 0.064 µg/mL
MIC ([7]; inoculum 0.625 × 10^3 IFU/well): 64 ng/mL (≈ 144 nM)
MCC ([7]; inoculum 5 × 10^3 IFU/well): >8 µg/mL
MCC3 ([7]; inoculum 5 × 10^3 IFU/well): 64 µg/mL
MIC ([7]; inoculum 5 × 10^3 IFU/well): 64 ng/mL (≈ 144 nM)
MCC ([7]; inoculum 10 × 10^3 IFU/well): >8 µg/mL
MCC3 ([7]; inoculum 10 × 10^3 IFU/well): 64 µg/mL
MIC ([7]; inoculum 10 × 10^3 IFU/well): 64 ng/mL (≈ 144 nM)
MCC ([7]; inoculum 20 × 10^3 IFU/well): >8 µg/mL
MCC3 ([7]; inoculum 20 × 10^3 IFU/well): 64 µg/mL
MIC ([7]; inoculum 20 × 10^3 IFU/well): 64 ng/mL (≈ 144 nM)
MCC ([7]; inoculum 40 × 10^3 IFU/well): >8 µg/mL
MCC3 ([7]; inoculum 40 × 10^3 IFU/well): 64 µg/mL
MIC ([7]; inoculum 40 × 10^3 IFU/well): 64 ng/mL (≈ 144 nM)
MCC ([7]; inoculum 80 × 10^3 IFU/well): >8 µg/mL
MCC3 ([7]; inoculum 80 × 10^3 IFU/well): 64 µg/mL
MCC ([7]; inoculum 160 × 10^3 IFU/well): >8 µg/mL
MCC3 ([7]; inoculum 160 × 10^3 IFU/well): 64 µg/mL
MIC ([7]; inoculum 160 × 10^3 IFU/well): 64 ng/mL (≈ 144 nM)
MCC ([7]; inoculum 320 × 10^3 IFU/well): >8 µg/mL
MCC3 ([7]; inoculum 320 × 10^3 IFU/well): 64 µg/mL
MIC ([7]; inoculum 320 × 10^3 IFU/well): 64 ng/mL (≈ 144 nM)
MCC ([7]; inoculum […] 10^3 IFU/well): 0.064 µg/mL
MCC3 ([7]; inoculum […] 10^3 IFU/well): 0.064 µg/mL
MIC ([7]; inoculum […] 10^3 IFU/well): 64 ng/mL (≈ 144 nM)
MIC [8]: 64 ng/mL (≈ 144 nM)
MIC [9]: 64 ng/mL (≈ 144 nM)

CC[C@H]1OC(=O)[C@H](C)[C@@H](O[C@H]2C[C@@](C)(OC)[C@@H](O)[C@H](C)O2)[C@H](C)[C@@H](O[C@@H]2O[C@H](C)C[C@H](N(C)C)[C@H]2O)[C@](C)(O)C[C@@H](C)C(=O)[C@H](C)[C@@H](O)[C@]1(C)O [Erythromycin, erythromycin]
MIC ([1]; McCoy cells, read-out: MIC): 500 ng/mL
MCC ([1]; McCoy cells): 8 µg/mL

CCCN1CCN(c2cc(O)c3nc4c5c6c7c(C)c(O)c5c(=O)c(c-4oc3c2)NC(=O)/C(C)=C\C=C\[C@H](C)[C@H](O)[C@@H](C)[C@@H](O)[C@@H](C)[C@H](OC(C)=O)[C@H](C)[C@@H](OC)/C=C/O[C@@](C)(O7)C6=O)CC1 [KRM-1657]
MCC3/MIC [4]: 16
MIC [4]: 0.064 to 0.125 ng/mL
anti-chlamydial activity in words [4]: highly active

CC1COc2c(N3CCN(C)CC3)c(F)cc3c(=O)c(C(=O)O)cn1c23 (stereo not drawn) [Ofloxacin, ofloxacin]
MCC3/MIC [4]: 128
MIC ([4]; Chlamydia trachomatis): 1000 to 2000 ng/mL (≈ 2770 to 5530 nM)
MCC3 [1]: 128 µg/mL
MCC3/MIC [1]: 128
MIC ([1]; McCoy cells, read-out: MIC): 1000 ng/mL
MCC ([1]; McCoy cells): 16 µg/mL
MCC [10]: >8 µg/mL and 4 µg/mL and 8 µg/mL
MCC1 (shell vial) [2]: >8 µg/mL
MCC3 (shell vial) [2]: >128 µg/mL
MCC (microtiter) [2]: 1.0 µg/mL
MIC [2]: 500 ng/mL (≈ 1380 nM)
MCC3 (shell vial) [3, 11]: >128 µg/mL
MCC (microtiter) [3, 11]: 1 to 2 µg/mL
MCC (shell vial) [3, 11]: >8 µg/mL
MIC (microtiter) [3, 11]: 500 to 1000 ng/mL
MIC (microtiter) [3, 16]: 500 to 1000 ng/mL
MCC3 (shell vial) [3, 12]: >128 µg/mL
MCC (microtiter) [3, 12]: 1 to 2 µg/mL
MCC (shell vial) [3, 12]: >8 µg/mL
MIC [3, 13]: 500 to 1000 ng/mL (≈ 1380 to 2770 nM)
MCC3 (shell vial) [3, 13]: >128 µg/mL
MCC (microtiter) [3, 13]: 1 to 2 µg/mL
MCC (shell vial) [3, 13]: >8 µg/mL
MCC3 (shell vial) [3, 14]: >128 µg/mL
MCC (microtiter) [3, 14]: 1 to 2 µg/mL
MCC (shell vial) [3, 14]: >8 µg/mL
MIC (microtiter) [3, 14]: 500 to 1000 ng/mL
MCC3 (shell vial) [3, 15]: >128 µg/mL
MCC (microtiter) [3, 15]: 1 to 2 µg/mL
MCC (shell vial) [3, 15]: >8 µg/mL
MIC (microtiter) [3, 15]: 500 to 1000 ng/mL
MIC [5]: 500 ng/mL (≈ 1380 nM)
MIC [6]: 500 ng/mL (≈ 1380 nM)
MIC [8]: 500 ng/mL (≈ 1380 nM)
MIC [9]: 500 ng/mL (≈ 1380 nM)

CO[C@H]1/C=C/O[C@@]2(C)Oc3c(C)c(O)c4c(=O)c(c5oc6cc(N7CCN(CC(C)C)CC7)cc(O)c6nc-5c4c3C2=O)NC(=O)/C(C)=C\C=C\[C@H](C)[C@H](O)[C@@H](C)[C@@H](O)[C@@H](C)[C@H](OC(C)=O)[C@@H]1C [Rifalazil, rifalazil]
MCC3/MIC [4]: 16
anti-chlamydial activity in words [4]: highly active
MIC ([4]; Chlamydia trachomatis): 0.25 to 5 ng/mL (≈ 0.266 to 5.31 nM)
MCC3/MIC [1]: 16
MIC ([1]; McCoy cells, read-out: MIC): 0.25 ng/mL
MCC ([1]; McCoy cells): 0.002 µg/mL
MCC3 ([1]; McCoy cells): 0.004 µg/mL
anti-chlamydial activity in words ([1]; McCoy cells, compared with other drugs): highly active

CO[C@H]1/C=C/O[C@@]2(C)Oc3c(C)c(O)c4c(O)c(c(/C=N/N5CCN(C)CC5)c(O)c4c3C2=O)NC(=O)/C(C)=C\C=C\[C@H](C)[C@H](O)[C@@H](C)[C@@H](O)[C@@H](C)[C@H](OC(C)=O)[C@@H]1C [Rifampin, rifampin]
MIC ([1]; McCoy cells, read-out: MIC): 16 ng/mL
MCC ([1]; McCoy cells): 0.5 µg/mL
MCC3 ([1]; McCoy cells): 4 µg/mL
MCC3/MIC ([1]; McCoy cells): 250

CN(C)[C@@H]1C(O)=C(C(N)=O)C(=O)[C@@]2(O)C(O)=C3C(=O)c4c(O)cccc4[C@@](C)(O)[C@H]3C[C@@H]12 [Tetracycline, tetracycline]
MCC [1]: 16 µg/mL
MCC3 [1]: 128 µg/mL
MCC3/MIC [1]: 128
MIC [1]: 250 ng/mL
MIC ([10]; Chlamydia trachomatis): 250 ng/mL (≈ 563 nM)
